Measured values published in US11912693B2, “Compounds for modulating S1P1 activity and methods of using the same” (TREVENA, INC., priority 2017, dated 2024).
pIC50: −log10 of the molar value.

Legend:
[1] = target: T1, human sphingosine-1-phosphate receptor 1 (S1P1) (Homo sapiens (Human), UniProt P21453); assay: β-Arrestin2 recruitment assay (PathHunter), S1P1 CHO-K1 cells; assay type: cell-based; conditions: for hS1P1 B-arrestin2 pEC50: β-arrestin2 recruitment, S1P1 CHO-K1 cells; for Emax: CHO-K1, read-out: hS1P1 B-arrestin2 SPAN
Outline: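 Enzyme-fragment complementation read-out: agonist-driven β-arrestin2 binding to ProLink-tagged human S1P1 in stable CHO-K1 cells restores β-galactosidase, measured 1 h at room temperature after a 60 min 37° C. compound incubation. Potency as pEC50, efficacy relative to fingolimod (SPAN).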
Target sequence in this assay (P21453 whole entry, looked up, the tested form may be a part): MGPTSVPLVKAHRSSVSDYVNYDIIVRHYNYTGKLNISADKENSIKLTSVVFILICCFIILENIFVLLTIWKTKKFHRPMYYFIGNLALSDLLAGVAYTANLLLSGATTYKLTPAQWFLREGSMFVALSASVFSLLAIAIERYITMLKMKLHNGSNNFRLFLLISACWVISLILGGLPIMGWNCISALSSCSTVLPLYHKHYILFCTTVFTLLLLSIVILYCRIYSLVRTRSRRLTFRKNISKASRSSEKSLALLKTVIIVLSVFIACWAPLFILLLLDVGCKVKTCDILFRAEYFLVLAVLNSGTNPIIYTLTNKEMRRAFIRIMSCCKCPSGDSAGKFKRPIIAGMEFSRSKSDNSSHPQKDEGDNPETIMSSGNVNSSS
Target sequence in this assay (P32121 whole entry partner, looked up, the tested form may be a part): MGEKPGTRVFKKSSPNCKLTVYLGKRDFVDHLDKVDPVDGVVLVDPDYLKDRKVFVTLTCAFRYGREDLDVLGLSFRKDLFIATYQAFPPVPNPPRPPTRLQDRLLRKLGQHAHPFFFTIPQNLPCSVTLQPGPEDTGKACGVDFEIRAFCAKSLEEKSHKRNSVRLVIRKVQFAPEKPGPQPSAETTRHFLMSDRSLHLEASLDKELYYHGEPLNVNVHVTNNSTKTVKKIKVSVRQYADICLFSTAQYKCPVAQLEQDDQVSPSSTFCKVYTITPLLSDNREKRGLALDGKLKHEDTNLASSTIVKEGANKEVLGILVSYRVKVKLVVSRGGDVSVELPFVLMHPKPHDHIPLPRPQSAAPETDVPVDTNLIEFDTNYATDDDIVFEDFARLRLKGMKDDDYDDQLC

[2] = tested on: peripheral blood lymphocytes; assay: Peripheral blood lymphocytes (lymphopenia) in c57bl/6 mice, acute and chronic studies; assay type: in vivo; conditions: 6 mg/kg sc, 7 days; for Lymphopenia: Effect and Doses, mg/kg, sc: peripheral blood lymphocytes vs vehicle
Protocol: Compounds were tested for changes in peripheral blood lymphocytes in c57bl/6 mice. In acute studies, animals (n=5/group) were dosed subcutaneously with test compound at a dose of 3 mg/kg. Animals were sacrificed at specific time points and 500 μl of whole blood was collected in EDTA (K2) Eppendorf tubes. Blood was stored on ice and shipped immediately overnight delivery to Charles River Laboratories for analysis. CRL ran samples through their WBC/differential panel on an Advia 120 instrument. We received peripheral lymphocyte counts (10^3 cells/μl) for each blood sample. Treatment group means were compared to a vehicle treatment group for statistical significance. In chronic studies, animals (n=6-8/group) were dosed subcutaneously with test compound either in a dose response paradigm (highest dose of 3 mg/kg) or in a screening paradigm at 6 mg/kg for seven days. On the seventh day, animals were sacrificed 45 minutes after the final dose. Whole blood was collected and analyzed as described for acute studies. […]

[3] = target: T1, human sphingosine-1-phosphate receptor 1 (S1P1); assay: Inhibition of cAMP production (HTRF cAMP HiRange), S1P1 CHO-K1 cells; assay type: cell-based; conditions: for hS1P1 cAMP pEC50: inhibition of cAMP production, S1P1 CHO-K1 cells; for Emax: CHO-K1, efficacy (SPAN) normalized to fingolimod, read-out: hS1P1 cAMP SPAN
Outline: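 CHO-K1 cells stably co-expressing human S1P1 (C-terminal Prolink tag) and EA-β-arrestin2 were grown in AssayComplete Media 6 at 37° C. and 5% CO2, plated, and incubated overnight. Agonist-driven inhibition of intracellular cAMP was read by TR-FRET with the HTRF cAMP HiRange kit on a PheraStar reader. Potency is pEC50, and efficacy (SPAN) is normalized to fingolimod.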
Target sequence in this assay (P21453 whole entry, looked up, the tested form may be a part): as the sequence (P21453 whole entry, looked up, the tested form may be a part) above

[4] = target: hERG channel (Homo sapiens (Human), UniProt Q12809); assay: Automated Qpatch patch-clamp hERG assay
[5] = tested on: STZ-induced diabetic neuropathy; assay: Tactile allodynia and thermal hyperalgesia in streptozotocin-induced (STZ) diabetic neuropathy model; assay type: in vivo, Sprague Dawley rats; conditions: for Active Doses in STZ Diabetic Neuropathy Model (mg/kg, po) (p < 0.05 compared to STZ + VEH treated mice) MECHANICAL: mechanical allodynia, manual von Frey; for Active Doses in STZ Diabetic Neuropathy Model (mg/kg, po) (p < 0.05 compared to STZ + VEH treated mice) THERMAL: thermal hyperalgesia, paw withdrawal latency
Protocol: A cohort of 48 male Sprague Dawley rats, weighing 225-250 g at arrival, was group housed under constant temperature, humidity and a 12-hour light-dark cycle. Following acclimation to the animal colony, the animals were tested for baseline withdrawal responses to mechanical allodynia and thermal hyperalgesia using the methods described below in Chaplan, S. R., Bach, […]., Chung, J. M. and Yaksh, T. L. Quantitative assessment of tactile allodynia in the rat paw. J. Neurosci. Methods 53: 55-63, 1994; Joris, J. L., Dubner, R. and Hargreaves, K. M. Opioid analgesia at Peripheral Sites: a Target for Opioids Released during Stress and Inflammation? Anesthesia and Analgesia 66(12), 1277-81, 1987; and Morrow, T. J. Animal Models of Painful Diabetic Neuropathy: The STZ rat model. Current Protocols in Neuroscience, November; Chapter 9, Unit 9.18, 2004.. […] Two days later (on Day 3), hyperglycermia was confirmed by existence of blood glucose >350 mg/dL as measured by glucometer, and the animal health was monitored biweekly for 12 days. For measures of mechanical allodynia, rats were preselected for experimentation only if the pain threshold 7-14 days after STZ injection (pre-treatment) was reduced by 10 grams of force relative to the response of the individual paw before STZ challenge (pre-induction), namely, with clear presence of allodynia. The rats were randomized based on pre-dose mechanical allodynia scores to balanced treatment groups. The animals were tested prior to study inclusion for mechanical allodynia by the manual von Frey test on Day 20 (Chaplan up/down method using von Frey filaments on the plantar surface of the paw). The manual von Frey test was repeated at 0.5 or 1 hr following administrations of test articles, vehicle, and reference compound via the specified route(s) and on Day 21 post-surgery. […] The rats were randomized based on pre-dose thermal hyperalgesia scores to balanced treatment groups. Rats were preselected (with clear presence of thermal hyperalgesia) on Day 20. Thermal hyperalgesia was measured at 1 or 1.5 hr after dosing of test articles, vehicle, and reference compound via the specified route(s) on Day 21. Each rat was placed within a plastic box atop a glass floor for 20 to 30 minutes. A light beam under the floor was aimed at the plantar surface of the left hind paw. The time was measured automatically when the paw was withdrawn away from the thermal stimulus. A cut-off latency of 23 sec was imposed. The latency to withdrawal was obtained for each rat and defined as the heat pain threshold. Mean thresholds and withdrawal latencies were analyzed via Two Way ANOVA followed by Dunnett's Multiple Comparison tests to STZ+VEH group with differences considered significant at p<0.05.

[6] = efficacy (SPAN) normalized to fingolimod

Sequence of hERG channel (Q12809 whole entry): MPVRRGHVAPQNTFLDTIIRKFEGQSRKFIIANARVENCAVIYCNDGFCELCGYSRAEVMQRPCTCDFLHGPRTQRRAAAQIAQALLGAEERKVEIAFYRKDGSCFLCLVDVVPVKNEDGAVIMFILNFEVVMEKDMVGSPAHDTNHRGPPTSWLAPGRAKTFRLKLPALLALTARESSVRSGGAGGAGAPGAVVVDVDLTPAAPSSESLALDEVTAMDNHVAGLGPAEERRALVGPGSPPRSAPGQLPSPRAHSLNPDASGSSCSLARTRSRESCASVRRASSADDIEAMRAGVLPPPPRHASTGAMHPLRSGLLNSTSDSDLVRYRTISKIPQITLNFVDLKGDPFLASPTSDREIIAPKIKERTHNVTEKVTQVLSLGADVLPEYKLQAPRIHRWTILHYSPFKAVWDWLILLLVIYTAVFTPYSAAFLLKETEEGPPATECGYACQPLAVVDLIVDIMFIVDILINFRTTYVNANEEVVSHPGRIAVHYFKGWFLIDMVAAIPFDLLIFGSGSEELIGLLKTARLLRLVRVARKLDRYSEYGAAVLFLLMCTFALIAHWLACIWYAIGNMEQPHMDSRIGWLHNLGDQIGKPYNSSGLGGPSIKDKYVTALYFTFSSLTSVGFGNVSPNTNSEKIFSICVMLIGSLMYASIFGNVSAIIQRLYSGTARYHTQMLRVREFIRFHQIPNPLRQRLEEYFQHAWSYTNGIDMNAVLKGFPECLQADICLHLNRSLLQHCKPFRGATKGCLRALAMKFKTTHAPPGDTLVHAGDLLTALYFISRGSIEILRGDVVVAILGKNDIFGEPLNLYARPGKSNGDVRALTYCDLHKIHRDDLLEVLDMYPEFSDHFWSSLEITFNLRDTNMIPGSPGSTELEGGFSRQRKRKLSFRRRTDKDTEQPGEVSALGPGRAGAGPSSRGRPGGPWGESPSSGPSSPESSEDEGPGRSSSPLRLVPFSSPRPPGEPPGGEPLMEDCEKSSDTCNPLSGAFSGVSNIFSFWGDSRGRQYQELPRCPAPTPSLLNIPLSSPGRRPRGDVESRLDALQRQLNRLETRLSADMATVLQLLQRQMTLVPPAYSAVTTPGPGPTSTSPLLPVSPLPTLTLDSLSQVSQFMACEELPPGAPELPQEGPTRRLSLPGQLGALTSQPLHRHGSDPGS

Q: With `COc1ccccc1-c1nc(-c2ccc3c(c2)nnn3C(C)C)no1` [Compound 287, 3-(1-isopropyl-1H-benzo[d][1,2,3]triazol-5-yl)-5-(2-methoxyphenyl)-1,2,4-oxadiazole] as the molecule, how does the “hS1P1 B-arrestin2 pEC50” value [1] read?
A: >5

Q: What about the “Lymphopenia: Effect and Doses, mg/kg, sc” value [2] of the same molecule?
A: no change: 6 mg/kg, 7 days

Q: What about the “hS1P1 cAMP pEC50” value [3] of the same molecule?
A: >6.5

Q: For `CC(C)n1nnc2cc(-c3nc(-c4cccc5c4OCCC5)no3)ccc21` [Compound 304, 3-chroman-8-yl-5-(1-isopropylbenzotriazol-5-yl)-1,2,4-oxadiazole], which “hS1P1 B-arrestin2 pEC50” value [1] is on record?
A: >5

Q: And the “Lymphopenia: Effect and Doses, mg/kg, sc” value [2]?
A: no change: 6 mg/kg, 7 days

Q: And the “hS1P1 cAMP pEC50” value [3]?
A: >6.5

Q: And the pIC50 [4]?
A: < 5.00

Q: With `COc1ccc(-c2noc(-c3ccc4c(c3)nnn4CC(C)(C)O)n2)c(C)c1` [Compound 26, 1-{5-[3-(4-methoxy-2-methylphenyl)-1,2,4-oxadiazol-5-yl]-1H-1,2,3-benzotriazol-1-yl}-2-methylpropan-2-ol] as the molecule, how does the “hS1P1 B-arrestin2 SPAN” value [1, 6] read?
A: <75

Q: And the “hS1P1 B-arrestin2 pEC50” value [1]?
A: >5

Q: And the “hS1P1 cAMP pEC50” value [3]?
A: >6.5

Q: And the pIC50 [4]?
A: < 5.00

Q: Which Emax [1, 6] does the source give for `CCC1(CC)CC(=O)c2cc(-c3nc(-c4cccnc4)no3)ccc2O1` [Compound 103, 2,2-diethyl-6-[3-(pyridin-3-yl)-1,2,4-oxadiazol-5-yl]-3,4-dihydro-2H-1-benzopyran-4-one] here?
A: > 75%

Q: And the “hS1P1 B-arrestin2 pEC50” value [1]?
A: >5

Q: What about the “Lymphopenia: Effect and Doses, mg/kg, sc” value [2] of the same molecule?
A: no change: 6 mg/kg, 7 days

Q: And the Emax [3]?
A: > 75%

Q: And the “hS1P1 cAMP pEC50” value [3]?
A: >6.5

Q: What about the “Active Doses in STZ Diabetic Neuropathy Model (mg/kg, po) (p < 0.05 compared to STZ + VEH treated mice) MECHANICAL” value [5] of the same molecule?
A: <100 mg/kg

Q: And the “Active Doses in STZ Diabetic Neuropathy Model (mg/kg, po) (p < 0.05 compared to STZ + VEH treated mice) THERMAL” value [5]?
A: <100 mg/kg

Q: Which results are given for `Cc1ccccc1-c1nc(-c2ccc3c(c2)nnn3C(C)C)no1` [Compound 99, 3-(1-isopropyl-1H-benzo[d][1,2,3]triazol-5-yl)-5-(o-tolyl)-1,2,4-oxadiazole]?
A: hS1P1 B-arrestin2 pEC50 [1]: >5; Lymphopenia: Effect and Doses, mg/kg, sc [2]: no change: 6 mg/kg, 7 days; hS1P1 cAMP pEC50 [3]: >6.5

Q: With `CC(C)n1nnc2cc(-c3nc(-c4ccncc4C(F)(F)F)no3)ccc21` [Compound 455, 1-(propan-2-yl)-5-{3-[3-(trifluoromethyl)pyridin-4-yl]-1,2,4-oxadiazol-5-yl}-1H-1,2,3-benzotriazole] as the molecule, how does the Emax [1, 6] read?
A: > 75%

Q: And the “hS1P1 B-arrestin2 pEC50” value [1]?
A: >5

Q: What about the “Lymphopenia: Effect and Doses, mg/kg, sc” value [2] of the same molecule?
A: no change: 6 mg/kg, 7 days

Q: What about the Emax [3] of the same molecule?
A: > 75%

Q: What about the “hS1P1 cAMP pEC50” value [3] of the same molecule?
A: >6.5

Q: Which Emax [1, 6] does the source give for `Cc1ccccc1-c1noc(-c2ccc3c(c2)nnn3C(C)C)n1` [Compound 293, 5-[3-(2-methylphenyl)-1,2,4-oxadiazol-5-yl]-1-(propan-2-yl)-1H-1,2,3-benzotriazole] here?
A: > 75%

Q: What about the “hS1P1 B-arrestin2 pEC50” value [1] of the same molecule?
A: >5

Q: What about the “Lymphopenia: Effect and Doses, mg/kg, sc” value [2] of the same molecule?
A: no change: 6 mg/kg, 7 days

Q: What about the Emax [3] of the same molecule?
A: > 75%

Q: And the “hS1P1 cAMP pEC50” value [3]?
A: >6.5

Q: What about the “Active Doses in STZ Diabetic Neuropathy Model (mg/kg, po) (p < 0.05 compared to STZ + VEH treated mice) MECHANICAL” value [5] of the same molecule?
A: <100 mg/kg

Q: And the “Active Doses in STZ Diabetic Neuropathy Model (mg/kg, po) (p < 0.05 compared to STZ + VEH treated mice) THERMAL” value [5]?
A: <100 mg/kg

Q: Which Emax [1, 6] does the source give for `CCC1(CC)CC(=O)c2cc(-c3nc(-c4cn[nH]c4)no3)ccc2O1` [Compound 469, 6-(3-(1H-pyrazol-4-yl)-1,2,4-oxadiazol-5-yl)-2,2-diethylchroman-4-one] here?
A: > 75%

Q: And the “hS1P1 B-arrestin2 pEC50” value [1]?
A: >5

Q: And the “Lymphopenia: Effect and Doses, mg/kg, sc (change in peripheral blood lymphocytes)” value ([2]; significance vs vehicle given)?
A: −28% not stat sig: 6 mg/kg, 7 days

Q: And the Emax [3]?
A: > 75%

Q: What about the “hS1P1 cAMP pEC50” value [3] of the same molecule?
A: >6.5

Q: And the pIC50 [4]?
A: < 5.00

Q: What about the “Active Doses in STZ Diabetic Neuropathy Model (mg/kg, po) (p < 0.05 compared to STZ + VEH treated mice) MECHANICAL” value [5] of the same molecule?
A: <100 mg/kg

Q: What about the “Active Doses in STZ Diabetic Neuropathy Model (mg/kg, po) (p < 0.05 compared to STZ + VEH treated mice) THERMAL” value [5] of the same molecule?
A: <100 mg/kg

Q: How did the Emax [1, 6] turn out when `CCC1(CC)CC(=O)c2cc(-c3nc(-c4cccnc4OC)no3)ccc2O1` [Compound 147, 2,2-diethyl-6-(3-(2-methoxypyridin-3-yl)-1,2,4-oxadiazol-5-yl)chroman-4-one] was run?
A: > 75%

Q: And the “hS1P1 B-arrestin2 pEC50” value [1]?
A: >5

Q: And the “Lymphopenia: Effect and Doses, mg/kg, sc” value [2]?
A: no change: 6 mg/kg, 7 days

Q: What about the Emax [3] of the same molecule?
A: > 75%

Q: And the “hS1P1 cAMP pEC50” value [3]?
A: >6.5

Q: For `CCC1(CC)CC(=O)c2cc(-c3nc(-c4ccncc4OC)no3)ccc2O1` [Compound 212, 2,2-diethyl-6-(3-(3-methoxypyridin-4-yl)-1,2,4-oxadiazol-5-yl)chroman-4-one], which Emax [1, 6] is on record?
A: < 75%

Q: And the “hS1P1 B-arrestin2 pEC50” value [1]?
A: >5

Q: And the Emax [3]?
A: > 75%

Q: And the “hS1P1 cAMP pEC50” value [3]?
A: >6.5
